Measured values from US20260015344A1, “PAN-KRAS INHIBITORS” (Mirati Therapeutics, Inc., priority 2022, published 2026).

How the values were obtained:
[1] = target: T1, KRas^G12D (Homo sapiens, UniProt P01116, G12D); test: KRas Binding Assay (TR-FRET displacement), KRas G12D; conditions: TR-FRET tracer displacement
T1 construct: corresponding to amino acids 1-169, produced at Accelegan Inc; biotin (biotinylated); purchased Accelegan Inc
Method: (§1) This Example illustrates that exemplary compounds of the present invention bind to KRas and are capable of displacing a labeled tracer ligand occupying the KRas binding site. KRas^WT, KRas^G12A, KRas^G12C, KRas^G12D, KRas^G12R, KRas^G12S, KRas^G12V, KRas^G13D, or KRas^Q61H was used in the assay.
(§2) The ability of a compound to bind to KRas was measured using a TR-FRET displacement assay. Biotinylated KRas (corresponding to amino acids 1-169, produced at Accelegan Inc.) was incubated with custom made Cy5 labelled tracer, terbium streptavidin (Cisbio Inc.) and compound (1% DMSO final) in buffer (50 mM HEPES, pH 7.5, 5 mM MgCl2, 0.005% Tween-20 and 1 mM DTT). After a 60-minute incubation at room temperature, the reaction was measured using a BMG LABTECH CLARIO star Plus via TR-FRET. […] The POC values were fit to a 4-parameter IC50 equation and the IC50 value reported.

[2] = target: T2, KRas^G12V (Homo sapiens, UniProt P01116, G12V); test: KRas Binding Assay (TR-FRET displacement), KRas G12V; conditions: TR-FRET tracer displacement
T2 construct: corresponding to amino acids 1-169, produced at Accelegan Inc; biotin (biotinylated); purchased Accelegan Inc
T2 sequence (P01116 1-169 isoform P01116-2 G12V): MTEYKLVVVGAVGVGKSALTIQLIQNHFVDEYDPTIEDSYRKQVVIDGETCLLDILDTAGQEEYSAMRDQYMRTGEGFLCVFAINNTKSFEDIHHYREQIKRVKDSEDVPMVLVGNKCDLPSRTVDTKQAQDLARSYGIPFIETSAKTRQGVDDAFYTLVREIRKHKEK
Method: as §1, §2

[3] = target: T3, KRas^G12R (Homo sapiens, UniProt P01116, G12R); test: KRas Binding Assay (TR-FRET displacement), KRas G12R; conditions: TR-FRET tracer displacement
T3 construct: corresponding to amino acids 1-169, produced at Accelegan Inc; biotin (biotinylated); purchased Accelegan Inc
T3 sequence (P01116 1-169 isoform P01116-2 G12R): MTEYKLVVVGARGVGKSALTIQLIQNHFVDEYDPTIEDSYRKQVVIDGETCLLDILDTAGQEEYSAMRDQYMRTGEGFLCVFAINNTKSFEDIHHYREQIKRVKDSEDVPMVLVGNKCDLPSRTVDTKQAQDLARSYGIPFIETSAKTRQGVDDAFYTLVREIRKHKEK
Method: as §1, §2

[4] = target: T4, KRas^WT (Homo sapiens, UniProt P01116); test: KRas Binding Assay (TR-FRET displacement), KRas WT; conditions: TR-FRET tracer displacement
T4 construct: corresponding to amino acids 1-169, produced at Accelegan Inc; biotin (biotinylated); purchased Accelegan Inc
T4 sequence (P01116 1-169 isoform P01116-2): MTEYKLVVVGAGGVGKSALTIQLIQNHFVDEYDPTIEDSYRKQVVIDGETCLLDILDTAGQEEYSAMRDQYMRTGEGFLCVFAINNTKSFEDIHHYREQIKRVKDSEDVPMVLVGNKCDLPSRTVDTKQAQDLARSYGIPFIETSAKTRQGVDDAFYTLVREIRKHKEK
Method: as §1, §2

[5] = target: T5, KRas^G13D (Homo sapiens, UniProt P01116, G13D); test: KRas Binding Assay (TR-FRET displacement), KRas G13D; conditions: TR-FRET tracer displacement
T5 construct: corresponding to amino acids 1-169, produced at Accelegan Inc; biotin (biotinylated); purchased Accelegan Inc
T5 sequence (P01116 1-169 isoform P01116-2 G13D): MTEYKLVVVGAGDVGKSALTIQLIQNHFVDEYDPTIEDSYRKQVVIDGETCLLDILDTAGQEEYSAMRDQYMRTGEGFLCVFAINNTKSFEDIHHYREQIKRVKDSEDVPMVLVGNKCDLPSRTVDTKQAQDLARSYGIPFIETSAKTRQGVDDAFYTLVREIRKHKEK
Method: as §1, §2

[6] = target: T6, KRas^Q61H (Homo sapiens, UniProt P01116, Q61H); test: KRas Binding Assay (TR-FRET displacement), KRas Q61H; conditions: TR-FRET tracer displacement
T6 construct: corresponding to amino acids 1-169, produced at Accelegan Inc; biotin (biotinylated); purchased Accelegan Inc
T6 sequence (P01116 1-169 isoform P01116-2 Q61H): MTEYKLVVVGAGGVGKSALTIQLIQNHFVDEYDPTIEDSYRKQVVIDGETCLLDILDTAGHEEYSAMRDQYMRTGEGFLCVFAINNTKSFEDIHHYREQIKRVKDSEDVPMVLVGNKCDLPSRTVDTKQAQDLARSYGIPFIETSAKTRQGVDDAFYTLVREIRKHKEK
Method: as §1, §2

[7] = target: T7, KRas^G12A (Homo sapiens, UniProt P01116, G12A); test: KRas Binding Assay (TR-FRET displacement), KRas G12A; conditions: TR-FRET tracer displacement
T7 construct: corresponding to amino acids 1-169, produced at Accelegan Inc; biotin (biotinylated); purchased Accelegan Inc
T7 sequence (P01116 1-169 isoform P01116-2 G12A): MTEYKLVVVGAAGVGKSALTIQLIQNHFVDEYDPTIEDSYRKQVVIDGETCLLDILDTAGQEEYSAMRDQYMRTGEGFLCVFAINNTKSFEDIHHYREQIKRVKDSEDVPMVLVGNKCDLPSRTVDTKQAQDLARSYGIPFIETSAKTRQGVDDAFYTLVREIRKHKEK
Method: as §1, §2

[8] = target: T8, KRas^G12C (Homo sapiens, UniProt P01116, G12C); test: KRas Binding Assay (TR-FRET displacement), KRas G12C; conditions: TR-FRET tracer displacement
T8 construct: corresponding to amino acids 1-169, produced at Accelegan Inc; biotin (biotinylated); purchased Accelegan Inc
T8 sequence (P01116 1-169 isoform P01116-2 G12C): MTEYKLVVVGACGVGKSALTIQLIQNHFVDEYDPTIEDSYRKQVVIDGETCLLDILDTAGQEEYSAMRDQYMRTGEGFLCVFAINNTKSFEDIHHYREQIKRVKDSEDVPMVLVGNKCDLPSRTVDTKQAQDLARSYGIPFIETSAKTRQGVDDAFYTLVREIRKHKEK
Method: as §1, §2

[9] = target: T9, KRas^G12S (Homo sapiens, UniProt P01116, G12S); test: KRas Binding Assay (TR-FRET displacement), KRas G12S; conditions: TR-FRET tracer displacement
T9 construct: corresponding to amino acids 1-169, produced at Accelegan Inc; biotin (biotinylated); purchased Accelegan Inc
T9 sequence (P01116 1-169 isoform P01116-2 G12S): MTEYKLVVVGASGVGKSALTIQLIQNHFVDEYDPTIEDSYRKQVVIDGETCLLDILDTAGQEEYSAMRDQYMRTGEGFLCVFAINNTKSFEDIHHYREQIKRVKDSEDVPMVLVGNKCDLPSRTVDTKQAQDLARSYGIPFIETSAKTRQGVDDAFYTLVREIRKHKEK
Method: as §1, §2

[10] = tested on: KRas-mediated Phosphorylation of ERK in AsPC-1 cells; test: HTRF pERK assay, AsPC-1 cells; format: cell-based; conditions: Homo sapiens, ASPC1, 3 hrs compound incubation, read-out: Inhibition (HTRF IC50 nM) of KRas-mediated Phosphorylation of ERK, AsPC-1
Method: (§3) • Day 1: Seed 6,000 cells/well-25 μl/well in 384-well white solid bottom plate; RPM1_10% FBS.
(§4) • 1. To harvest cells from flask using 0.05% Trypsin/EDTA solution. Add 10 mL of media to stop trypsinizing. Pipette the cells into a conical bottom 50 mL centrifuge tube and centrifuge 5 min×1000 rpm. • 2. Re-suspend the cell pellet in media, take a cell count, and then adjust the cell density using fresh media. • 3. Seed 6,000 cells into cell culture plate with 50 μL media. The • 4. Incubate cell plate overnight in a 37° C., 5% CO2 incubator.
(§5) • 1. Use Tecan to complete the compound addition. Compounds start from 10 uM top, 3-fold dilution, and 10 doses. The final DMSO concentration is 0.8%. Dispensed 0.2 uM Trametinib as Min control. • 2. Incubate cell plate for 3 hrs in the incubator. Detection with Cisbio pERK HTRF Kit • 1. Dilute 1 volume of 4× lysis buffer with 3 volumes of deionized water. Then, add 100× the blocking reagent. Keep lysis buffer on the ice. • 2. At the end of the compound treatment, flick-off the media. • 3. Add 35 μL of lysis buffer per well using a Multidrop Combi. Then place on a plate agitator shaking at 300 rpm at 4° C. for 40 mins. • 4. Make up the HTRF antibody buffer. For each assay plate, mix 50 μL of d2-conjugate antibody with 950 μL of detection buffer. Similarly, mix 50 μL of Cryptate antibody with 950 μL of detection buffer. Then mix the two diluted antibodies together. • 5. Dispense 3.4 μL the antibody buffer to wells of an empty assay plate. Seal the plate and centrifuge plate 30 sec×1000 rpm. • 6. At the end of the 4° C. lysis, centrifuge the lysate plates 3 mins×1500 rpm. • 7. Use the Bravo to transfer 13.6 μL of lysate from cell culture plate to assay plate. Then incubate assay plate for 2 hrs at room temperature. • 8. At the end of incubation, read plate on the Envision after centrifuging plate 30 sec×1000 rpm.

[11] = tested on: KRas-mediated Phosphorylation of ERK in H727 cells; test: HTRF pERK assay, H727 cells; format: cell-based; conditions: Homo sapiens, NCI-H727, 3 hrs compound incubation, read-out: Inhibition (HTRF IC50 nM) of KRas-mediated Phosphorylation of ERK, H727
Method: as §3, §4, §5

[12] = tested on: KRas-mediated Phosphorylation of ERK in MKN1 cells; test: HTRF pERK assay, MKN1 cells; format: cell-based; conditions: Homo sapiens, MKN-1, 3 hour compound incubation, read-out: Inhibition (HTRF IC50 nM) of KRas-mediated Phosphorylation of ERK, MKN1
Method: Cisbio HTRF Advanced pERK Assay Catalog #64AERPEH • Cells: MKN1, PSN1
as §3

[13] = tested on: KRas-mediated Phosphorylation of ERK in H2009 cells; test: HTRF pERK assay, H2009 cells; format: cell-based; conditions: Homo sapiens, NCI-H2009; H2009 cells by column count (c8); may be PSN1; read-out: Inhibition (HTRF IC50 nM) of KRas-mediated Phosphorylation of ERK, H2009
[14] = tested on: KRas-mediated Phosphorylation of ERK in HCT116 cells; test: HTRF pERK assay, HCT116 cells; format: cell-based; conditions: Homo sapiens, HCT-116, 3 hrs compound incubation, read-out: Inhibition (HTRF IC50 nM) of KRas-mediated Phosphorylation of ERK, HCT116
Method: as §3, §4
as §5, with “Similarly, mix 50 μL of Cryptate antibody with 950 μL of detection buffer. Then mix the two diluted antibodies together. • 5. Dispense 3.4 μL the antibody buffer to wells of an empty assay plate. Seal the plate and centrifuge plate 30 sec×1000 rpm. • 6. At the end of the 4° C. lysis, centrifuge the lysate plates 3 mins×1500 rpm. • 7. Use the Bravo to transfer 13.6 μL of lysate from cell culture plate to assay plate. Then incubate assay plate for 2 hrs at room temperature. • 8.” left out

[15] = tested on: KRas-mediated Phosphorylation of ERK in A549 cells; test: HTRF pERK assay, A549 cells; format: cell-based; conditions: Homo sapiens, 3 hrs compound incubation, read-out: Inhibition (HTRF IC50 nM) of KRas-mediated Phosphorylation of ERK, A549
Method: as §3, §4
as §5, with “Similarly, mix 50 μL of Cryptate antibody with 950 μL of detection buffer. Then mix the two diluted antibodies together. • 5. Dispense 3.4 μL the antibody buffer to wells of an empty assay plate. Seal the plate and centrifuge plate 30 sec×1000 rpm. • 6. At the end of the 4° C. lysis, centrifuge the lysate plates 3 mins×1500 rpm. • 7. Use the Bravo to transfer 13.6 μL of lysate from cell culture plate to assay plate. Then incubate assay plate for 2 hrs at room temperature. • 8.” left out

[16] = tested on: KRas-mediated Phosphorylation of ERK in H460 cells; test: HTRF pERK assay, H460 cells; format: cell-based; conditions: Homo sapiens, NCI-H460, 3 hrs compound incubation, read-out: Inhibition (HTRF IC50 nM) of KRas-mediated Phosphorylation of ERK, H460
Method: as §3, §4
as §5, with “Similarly, mix 50 μL of Cryptate antibody with 950 μL of detection buffer. Then mix the two diluted antibodies together. • 5. Dispense 3.4 μL the antibody buffer to wells of an empty assay plate. Seal the plate and centrifuge plate 30 sec×1000 rpm. • 6. At the end of the 4° C. lysis, centrifuge the lysate plates 3 mins×1500 rpm. • 7. Use the Bravo to transfer 13.6 μL of lysate from cell culture plate to assay plate. Then incubate assay plate for 2 hrs at room temperature. • 8.” left out

[17] = tested on: KRas-mediated Phosphorylation of ERK in H358 cells; test: HTRF pERK assay, H358 cells; format: cell-based; conditions: Homo sapiens, NCI-H358, 3 hrs compound incubation, read-out: Inhibition (HTRF IC50 nM) of KRas-mediated Phosphorylation of ERK, H358
Method: as §3, §4
as §5, with “Similarly, mix 50 μL of Cryptate antibody with 950 μL of detection buffer. Then mix the two diluted antibodies together. • 5. Dispense 3.4 μL the antibody buffer to wells of an empty assay plate. Seal the plate and centrifuge plate 30 sec×1000 rpm. • 6. At the end of the 4° C. lysis, centrifuge the lysate plates 3 mins×1500 rpm. • 7. Use the Bravo to transfer 13.6 μL of lysate from cell culture plate to assay plate. Then incubate assay plate for 2 hrs at room temperature. • 8.” left out

T1 sequence (P01116 1-169 isoform P01116-2 G12D): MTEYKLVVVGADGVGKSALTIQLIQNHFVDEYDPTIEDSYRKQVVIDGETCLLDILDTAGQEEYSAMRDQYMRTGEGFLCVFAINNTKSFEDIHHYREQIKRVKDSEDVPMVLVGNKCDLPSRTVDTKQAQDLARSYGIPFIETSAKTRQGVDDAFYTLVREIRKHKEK

Structure (SMILES)	IC50 [1] [nM]	IC50 [2] [nM]	IC50 [3] [nM]	IC50 [4] [nM]	IC50 [5] [nM]	IC50 [6] [nM]	IC50 [7] [nM]	IC50 [8] [nM]	IC50 [9] [nM]	IC50 [10] [nM]	IC50 [11] [nM]	IC50 [12] [nM]	IC50 [13] [nM]	IC50 [14] [nM]	IC50 [15] [nM]	IC50 [16] [nM]	IC50 [17] [nM]
C[C@H](Oc1nc(-c2noc(C3(C)CCCc4sc(N)c(C#N)c43)n2)cc(N2CCC[C@@](C)(O)C2)n1)[C@@H]1CCCN1C (stereo partly drawn) [Example 1, 2-amino-4-(3-(6-((R)-3-hydroxy-3-methylpiperidin-1-yl)-2-((S)-1-((S)-1-methylpyrrolidin-2-yl)ethoxy)pyrimidin-4-yl)-1,2,4-oxadiazol-5-yl)-4-methyl-4,5,6,7-tetrahydrobenzo[b]thiophene-3-carbonitrile]	42	43	28	22	74	117	82	106	90	3740	6440	593	> 10000				
C[C@H](Oc1nc(-c2noc(C3(C)CCCc4sc(N)c(C#N)c43)n2)cc(N2C[C@H]3CC[C@@H](C2)N3)n1)[C@@H]1CCCN1C (stereo partly drawn) [Example 3, 4-(3-(6-((1R,5S)-3,8-diazabicyclo[3.2.1]octan-3-yl)-2-((S)-1-((S)-1-methylpyrrolidin-2-yl)ethoxy)pyrimidin-4-yl)-1,2,4-oxadiazol-5-yl)-2-amino-4-methyl-4,5,6,7-tetrahydrobenzo[b]thiophene-3-carbonitrile]	18	767	728	195	315	656	879	1060	912	5940	> 10000	> 10000	> 10000				
C[C@H](Oc1nc(-c2cc(C3(C)CCCc4sc(N)c(C#N)c43)sn2)cc(N2CCCC3(CNS(=O)(=O)N3)C2)n1)[C@@H]1CCCN1C (stereo partly drawn) [Example 10, 2-amino-4-(3-(6-(2,2-dioxido-2-thia-1,3,7-triazaspiro[4.5]decan-7-yl)-2-((S)-1-((S)-1-methylpyrrolidin-2-yl)ethoxy)pyrimidin-4-yl)isothiazol-5-yl)-4-methyl-4,5,6,7-tetrahydrobenzo[b]thiophene-3-carbonitrile]	3	4	< 2	31	24	9	35	15	25	898	3900	10	9300	962	727	288	216
C[C@H](Oc1nc(-c2noc(C3(C)CCCc4sc(N)c(C#N)c43)n2)cc(N2CCOCC(C)(O)C2)n1)[C@@H]1CCCN1C (stereo partly drawn) [Example 13, 2-amino-4-(3-(6-(6-hydroxy-6-methyl-1,4-oxazepan-4-yl)-2-((S)-1-((S)-1-methylpyrrolidin-2-yl)ethoxy)pyrimidin-4-yl)-1,2,4-oxadiazol-5-yl)-4-methyl-4,5,6,7-tetrahydrobenzo[b]thiophene-3-carbonitrile]	11	6	4							507	469	44	> 10000	899	689	394	43
